From patent publication US20170348253A1, “Treatment of Drug-Resistant Microbial Infections” (NovaBiotics Limited, priority 2016, published 2017)

Tests used:
[1] = test system: P. aeruginosa strain LES431; assay: Neutropenic mouse thigh model of infection; format: in vivo, Pseudomonas aeruginosa; settings: for Log10 reduction in cfu/g: neutropoenic mice, thigh, 24 h post-treatment, compared with vehicle control
Description: Mouse thigh infection model experiments were conducted at Eurofins Panlabs, (Taipei, Taiwan). Mice were rendered neutropoenic with cyclophosphamide prior to infection. They were separated into groups of 5 animals per treatment. […] Animals were sacrificed 25 h post infection (24 h post-treatment) and thigh weights and cfu/g of tissue were calculated and recorded.

Staphylococcus aureus = assay: Aberdeen clinical study: sputum microbiology, resistance profile of predominant pathogen; format: in vivo; parameters: key: MRSA = Methicillin-resistant Staphylococcus aureus; MSSA = Methicillin-sensitive Staphylococcus aureus; PR = pan-resistant; S = sensitive; Cip^R = ciprofloxacin-resistant; Cip^S = ciprofloxacin sensitive; settings: Patient 1, stable CF lung disease, oral 450 mg once daily increased weekly to four times daily; pre trial MRSA
Description: (§1) Patients≧18 years of age, weighing>50 kg with stable CF lung disease were commenced on oral cysteamine bitartrate (Cystagon®) 450 mg once daily, increased weekly to 450 mg four times daily. Serial plasma cysteamine concentrations were measured for 24 h after the first dose. Participants were reviewed every week for 6 weeks, except at 4 weeks. Plasma cysteamine concentrations were measured 8 h after dosing when reviewed at 1, 2 and 3 weeks and 6 h after dosing when reviewed at 5 weeks. Sputum cysteamine concentration was also quantified at the 5-week assessment. Routine monitoring of clinical microbiology and reporting of speciation and resistance profile of major colonising microorganisms from patients continued as normal, prior to, during where necessary and after the trial by the hospital microbiology laboratory.

P. aeruginosa = assay: as above; format: in vivo, Pseudomonas aeruginosa; settings: oral 450 mg once daily increased weekly to four times daily
Description: as §1

Compound: Colistin
- Log10 reduction in cfu/g ([1]; 5 mg/kg SC): 5.02 log10 cfu/g

Compound: NCCS.O=C(O)C(O)C(O)C(=O)O (stereo not shown) [cysteamine bitartrate]
- Post trial microbiology (predominant pathogen in sputum) (Staphylococcus aureus): MSSA
- Post trial microbiology (predominant pathogen in sputum) (P. aeruginosa; Patient 2, stable CF lung disease, pre trial PR P. aeruginosa): S P. aeruginosa
- Post trial microbiology (predominant pathogen in sputum) (P. aeruginosa; Patient 3, stable CF lung disease, pre trial Cip^R P. aeruginosa): Cip^S P. aeruginosa

Compound: NCCS [Cysteamine, cysteamine]
- Effect of cysteamine on the activity of ciprofloxacin ([1]; neutropenic mouse thigh model, cysteamine 1.25 mg/kg with ciprofloxacin 15 mg/kg): chemopotentiates the activity of ciprofloxacin
- Log10 reduction in cfu/g ([1]; 1.25 mg/kg i.v.): 0.74 log10 cfu/g

Compound: O=C(O)c1cn(C2CC2)c2cc(N3CCNCC3)c(F)cc2c1=O [Ciprofloxacin]
- Log10 reduction in cfu/g ([1]; 15 mg/kg i.v.): 2.02 log10 cfu/g
